The text below walks through data of patent US20220386611A1, “NOVEL HETEROARYL-TRIAZOLE COMPOUNDS AS PESTICIDES” (Bayer Aktiengesellschaft, priority 2019, published 2022).

Molecules are shown by their SMILES.

Holding throughout (type): in vivo
For assay [1], the system named is cattle ticks (Rhipicephalus microplus) strain Parkhurst, SP-resistant. Briefly: Rhipicephalus (Boophilus) microplus dip test. As to conditions: 100 ppm, after 7 days. How it is done: Rhipicephalus (Boophilus) microplus—Dip Test
Test animal: cattle ticks (Rhipicephalus microplus) strain Parkhurst, SP-resistant
Solvent: dimethyl sulfoxide
To produce a suitable preparation of active compound, 10 mg of active compound are dissolved in 0.5 mL solvent, and the concentrate is diluted with water to the desired concentration.
This compound solution is pipetted into tubes. 8-10 engorged, adult, female cattle ticks (Rhipicephalus microplus) are placed in perforated tubes. These tubes are immersed in the aqueous compound solution until the ticks are completely moistened. After the liquid has drained off, the ticks are transferred to a filter paper in a plastic tray and stored in a climate chamber.
After 7 days egg deposition of fertile eggs is monitored. Eggs where fertility is not visible are stored in a climate chamber till hatching after about 42 days. An efficacy of 100% means all eggs are infertile; 0% means all eggs are fertile.

The subject of assay [2] is Blattella germanica strain PAULINIA
The assay is described as follows: Blattella germanica test (BLTTGE surface treatment & contact assay). Particulars: surface concentration 20 mg/m^2, 30 minutes exposure, 24 hours after contact, read-out: efficacy (mortality). On the procedure: Blattella germanica Test (BLTTGE Surface Treatment & Contact Assay)
Solvent: Aceton+2000 ppm rapeseed oil methyl ester (RME)
In order to produce a sufficient, active ingredient containing solution it is necessary to solve the test compound in the solvent-mix (acetone at 2 mg/ml/RME 2000 ppm). This solution is pipetted onto a glazed tile and after evaporation of the acetone, adult animals of the species Blattella germanica strain PAULINIA are placed onto the dried surface. The exposure time is 30 minutes. Mortality in percent (%) is determined 24 hours after contact of the insects to the treated surface. 100% mortality means that all tested insects are dead, whereas 0% means that no insect died.

Assay [3] has as its system larvae of the banded cucumber beetle (Diabrotica balteata). Briefly: Diabrotica balteata spray test. Particulars: 168 h, 100 g/ha (=32 μg/well), after 7 days, wheat seeds, read-out: efficacy (seedlings grown like untreated, uninfected control). The essentials:
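Germinated wheat seedlings sprayed with compound in acetone/DMF with emulsifier-containing water, then infested with 10-20 Diabrotica balteata larvae per unit. Efficacy scored after 7 days as seedling growth relative to untreated, uninfested control (100%) versus no growth (0%).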

Assay [4] concerns adult engorged female ticks (Rhipicephalus microplus). The assay is described as follows: Rhipicephalus (Boophilus) microplus injection test. Particulars: 168 h, after 7 days, read-out: efficacy (infertile eggs); for pest or weed control at 0.004 mg: 4 μg/animal. Put shortly: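 Five adult engorged female ticks injected into the abdomen with 1 μL compound solution in DMSO, then held in a climate chamber. Fertile egg deposition assessed after 7 days, unclear eggs kept until hatching (about 42 days); efficacy 100% = all eggs infertile, 0% = all fertile.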

For assay [5], the system named is green peach aphid (Myzus persicae). Briefly: Myzus persicae spray test. Particulars: foliar, 120 h, after 5 days, Chinese cabbage leaf disks. Put shortly: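 Chinese cabbage leaf disks infested with all instars of Myzus persicae were sprayed with compound formulated in acetone/dimethylformamide and diluted in water containing 1000 ppm emulsifier. Percent mortality was scored after 5 days.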

With `CC(NC(=O)c1cc(C(F)(F)F)cc(C(F)(F)F)c1)c1nc(Cl)nn1-c1ncccn1` (centres unmarked) [Example I-002], the “efficacy (infertile eggs)” value in assay [1] amounted to 80%. Also, in assay [2], the mortality (commonly the percentage killed) at 20 mg/m2 fell in the range of 80 to 100%. In assay [3], the pest or weed control at 32 µg/disc, 100 g/ha is 100%. The pest or weed control at 0.004 mg in assay [4] came out at 100%. Moreover, in assay [4] (20 μg/animal), the pest or weed control at 0.02 mg came to 100%.

The compound `CC(NC(=O)c1cc(C(F)(F)F)cc(C(F)(F)F)c1)c1nc(Br)nn1-c1ncccn1` (centres unmarked) [Example I-010] had a mortality at 100 g/ha in assay [5] of 90%. In addition, the pest or weed control at 32 µg/disc, 100 g/ha in assay [3] was 80%. Also, the pest or weed control at 0.004 mg in assay [4] was 100%.

Take `CC(NC(=O)c1cc(C(F)(F)F)cc(C(F)(F)F)c1)c1nc(I)nn1-c1ncccn1` (centres unmarked) [Example I-021]: the mortality at 20 mg/m2 in assay [2] was in the range of 80 to 100%. In assay [5], this compound gave a mortality at 100 g/ha of 90%. The pest or weed control at 32 µg/disc, 100 g/ha in assay [3] stood at 100%.
